Measurements as given in patent publication US12152048B2, “Nitroxoline prodrug and use thereof” (Jiangsu Yahong Meditech Co., Ltd., priority 2018, dated 2024).

How the values were obtained:
[1] = Stability in monkey plasma; format: in vitro ADME
Excerpt: (§1) Experimental instruments: thermostatic shaker (SHA-B, Guohua Electric Appliance Co., Ltd.); centrifuge (5810R, Eppendorf); mass spectrometry (AP4000, Applied Biosystems, USA); liquid chromatography (LC-30AD, Shimadzu); sample injector (CTC Analytics AG System, CTC).
(§2) Test animals: plasma of human (batch number: BRH1343165), rat (batch number: RAT336728), mouse (batch number: MSE280000), dog (batch number: BGL99137) and monkey (batch number: PH-Monkey-20180821) are purchased from Shanghai Sixin Biological Technology Co., Ltd.
(§3) Experimental process: the compound of the present invention was dissolved in an organic solvent to obtain a 1 mM working solution. 3 μL of the working solution were added to 597 μL of pre-incubated human or rat plasma and mixed well. 50 μL of the solution were immediately taken out as the 0 minute sample. The remaining sample was incubated at 37° C., and 50 μL of sample were taken out at 15, 30, 60 and 120 minutes respectively. All the samples taken out were immediately processed to precipitate protein, and centrifuged to obtain a supermate for the determination of the compound concentration by LC/MS/MS.

Stability in dog plasma = format: in vitro ADME
Excerpt: as §1, §2, §3

[2] = Stability in human plasma
Excerpt: as §1, §2, §3

[3] = Stability in plasma, overall conclusion (species not stated); conditions: conclusion in words
[4] = Stability in rat liver microsome; conditions: 2 μM, 37° C., 30 minutes
[5] = Determination of water solubility in phosphate buffer; format: physicochemical; conditions: for solubility at 24 h: thermodynamic from solid
Excerpt: Experimental instruments: 96-well filter plate (MSHVN4510 or MSHVN4550, Millipore); electronic digital display vortex mixer (MS3 Digital, IKA); multi-purpose vacuum pump (circulating water type, SHB-111, Zhengzhou Greatwall Scientific Industrial and Trade Co., Ltd.); balance (XSLT05, Mettler-Toledo); comfortable mixer (Eppendorf AG 22331 Hamburg, Eppendorf); liquid chromatography (LC-3AD, Shimadzu); mass spectrometry (API4000, Applied Biosystems, USA); sample injector (Anylytics AG System, CTC). Nitroxoline was prepared according to the method disclosed in Journal of Heterocyclic Chemistry, 1971, vol. 8, p 821 by Wisdom Pharmaceutical Co., Ltd.
Experimental process: 500 μL of phosphate buffer (pH=1.2, 4.5, 6.8 or 7.4) were added to a glass flask, to which 2 mg of compound powder were added. The flask was sealed with a cap and shaked on a mixer (VORTEX-GENIE2) at room temperature for 24 hours. The solution was subjected to vacuum filtration, and the filtrate was processed to determine the compound concentration by LC/MS/MS.

[6] = Stability in dog liver microsome; conditions: 2 μM, 37° C., 30 minutes
[7] = Stability in human liver microsome; conditions: 2 μM, 37° C., 30 minutes
Protocol: Experimental instruments: thermostatic shaker (SHA-B, Guohua Electric Appliance Co., Ltd.); centrifuge (5810R, Eppendorf); mass spectrometry (API4000, Applied Biosystems, USA); liquid chromatography (LC-30AD, Shimadzu); sample injector (CTC Analytics AG System, CTC).
Experimental process: 25 μg/mL alamethicin (Aldrich), 5 mM magnesium chloride and 0.5 mg/mL microsome (XENOTECH) were added to 100 mM phosphate buffer to obtain a coenzyme-free reaction solution. A portion of the coenzyme-free reaction solution was added with 1 mM reductive nicotinamide adenine dinucleotide phosphate (Aldrich) and 5 mM uridine diphosphate glucuronic acid (Aldrich) to obtain a coenzyme-containing reaction solution. The working solution of the compound of the present invention was added to the two reaction solutions so that the final concentration of the compound was 2 μM. Immediately after mixing well, 50 μL of the solution were taken out as the 0 minute sample, and 50 μL of the remaining sample were taken out after incubating at 37° C. for 30 minutes. All the samples taken out were immediately processed to precipitate protein, and centrifuged to obtain a supernate for the determination of the compound concentration by LC/MS/MS.

Excerpt for Stability in rat plasma: as §1, §2, §3

## CC(C)(C)C(=O)OCOc1ccc([N+](=O)[O-])c2cccnc12 [Compound 4, (5-nitroquinolin-8-yloxy)methyl pivalate]
Stability in rat plasma; 0 minute
  Percentage of the compound remaining in plasma: 100.0%
Stability in rat plasma; 37° C., 15 minutes
  Percentage of the compound remaining in plasma: 0.0%
Stability in rat plasma; 37° C., 30 minutes
  Percentage of the compound remaining in plasma: 0.0%
Stability in rat plasma; 37° C., 60 minutes
  Percentage of the compound remaining in plasma: 0.0%
Stability in rat plasma; 37° C., 120 minutes
  Percentage of the compound remaining in plasma: 0.0%
[1]; 0 minute
  Percentage of the compound remaining in plasma: 100.0%
[1]; 37° C., 15 minutes
  Percentage of the compound remaining in plasma: 4.8%
[1]; 37° C., 30 minutes
  Percentage of the compound remaining in plasma: 0.3%
[1]; 37° C., 60 minutes
  Percentage of the compound remaining in plasma: 0.0%
[1]; 37° C., 120 minutes
  Percentage of the compound remaining in plasma: 0.0%
Stability in dog plasma; 0 minute
  Percentage of the compound remaining in plasma: 100.0%
Stability in dog plasma; 37° C., 15 minutes
  Percentage of the compound remaining in plasma: 80.0%
Stability in dog plasma; 37° C., 30 minutes
  Percentage of the compound remaining in plasma: 56.3%
Stability in dog plasma; 37° C., 60 minutes
  Percentage of the compound remaining in plasma: 32.7%
Stability in dog plasma; 37° C., 120 minutes
  Percentage of the compound remaining in plasma: 18.2%
[2]; 0 minute
  Percentage of the compound remaining in plasma: 100.0%
[2]; 37° C., 15 minutes
  Percentage of the compound remaining in plasma: 80.9%
[2]; 37° C., 30 minutes
  Percentage of the compound remaining in plasma: 70.7%
[2]; 37° C., 60 minutes
  Percentage of the compound remaining in plasma: 54.7%
[2]; 37° C., 120 minutes
  Percentage of the compound remaining in plasma: 31.4%

## COC(=O)[C@H](Cc1ccccc1)NC(=O)OCOc1ccc([N+](=O)[O-])c2cccnc12 [Compound 58, methyl (S)-2-(((5-nitroquinolin-8-yloxy)methoxy)formamido)-3-phenylpropionate]
Stability in rat plasma; 0 minute
  Percentage of the compound remaining in plasma: 100.0%
Stability in rat plasma; 37° C., 15 minutes
  Percentage of the compound remaining in plasma: 0.0%
Stability in rat plasma; 37° C., 30 minutes
  Percentage of the compound remaining in plasma: 0.0%
Stability in rat plasma; 37° C., 60 minutes
  Percentage of the compound remaining in plasma: 0.0%
Stability in rat plasma; 37° C., 120 minutes
  Percentage of the compound remaining in plasma: 0.0%
[3]
  stability in plasma: high stability
Stability in dog plasma; 0 minute
  Percentage of the compound remaining in plasma: 100.0%
Stability in dog plasma; 37° C., 15 minutes
  Percentage of the compound remaining in plasma: 96.3%
Stability in dog plasma; 37° C., 30 minutes
  Percentage of the compound remaining in plasma: 90.4%
Stability in dog plasma; 37° C., 60 minutes
  Percentage of the compound remaining in plasma: 74.4%
Stability in dog plasma; 37° C., 120 minutes
  Percentage of the compound remaining in plasma: 49.8%
[2]; 0 minute
  Percentage of the compound remaining in plasma: 100.0%
[2]; 37° C., 15 minutes
  Percentage of the compound remaining in plasma: 95.2%
[2]; 37° C., 30 minutes
  Percentage of the compound remaining in plasma: 83.6%
[2]; 37° C., 60 minutes
  Percentage of the compound remaining in plasma: 60.9%
[2]; 37° C., 120 minutes
  Percentage of the compound remaining in plasma: 21.6%

## C[C@@H]1CN(C(=O)OCOc2ccc([N+](=O)[O-])c3cccnc23)C[C@H](C)O1 [Compound 59, (2S,6R)-(5-nitroquinolin-8-yloxy)methyl 2,6-dimethylmorpholine-4-carboxylate]
Stability in rat plasma; 0 minute
  Percentage of the compound remaining in plasma: 100.0%
Stability in rat plasma; 37° C., 15 minutes
  Percentage of the compound remaining in plasma: 95.8%
Stability in rat plasma; 37° C., 30 minutes
  Percentage of the compound remaining in plasma: 94.1%
Stability in rat plasma; 37° C., 60 minutes
  Percentage of the compound remaining in plasma: 92.4%
Stability in rat plasma; 37° C., 120 minutes
  Percentage of the compound remaining in plasma: 92.4%
[3]
  stability in plasma: high stability
Stability in dog plasma; 0 minute
  Percentage of the compound remaining in plasma: 100.0%
Stability in dog plasma; 37° C., 15 minutes
  Percentage of the compound remaining in plasma: 96.7%
Stability in dog plasma; 37° C., 30 minutes
  Percentage of the compound remaining in plasma: 95.0%
Stability in dog plasma; 37° C., 60 minutes
  Percentage of the compound remaining in plasma: 102.8%
Stability in dog plasma; 37° C., 120 minutes
  Percentage of the compound remaining in plasma: 99.9%
[2]; 0 minute
  Percentage of the compound remaining in plasma: 100.0%
[2]; 37° C., 15 minutes
  Percentage of the compound remaining in plasma: 102.3%
[2]; 37° C., 30 minutes
  Percentage of the compound remaining in plasma: 100.9%
[2]; 37° C., 60 minutes
  Percentage of the compound remaining in plasma: 103.1%
[2]; 37° C., 120 minutes
  Percentage of the compound remaining in plasma: 100.3%

## CC1CN(C(=O)OCOc2ccc([N+](=O)[O-])c3cccnc23)CCO1 (centres unmarked) [Compound 62, (5-nitroquinolin-8-yloxy)methyl 2-methylmorpholine-4-carboxylate]
Stability in rat plasma; 0 minute
  Percentage of the compound remaining in plasma: 100.0%
Stability in rat plasma; 37° C., 15 minutes
  Percentage of the compound remaining in plasma: 92.4%
Stability in rat plasma; 37° C., 30 minutes
  Percentage of the compound remaining in plasma: 97.3%
Stability in rat plasma; 37° C., 60 minutes
  Percentage of the compound remaining in plasma: 95.8%
Stability in rat plasma; 37° C., 120 minutes
  Percentage of the compound remaining in plasma: 89.0%
[3]
  stability in plasma: high stability
[2]; 0 minute
  Percentage of the compound remaining in plasma: 100.0%
[2]; 37° C., 15 minutes
  Percentage of the compound remaining in plasma: 95.4%
[2]; 37° C., 30 minutes
  Percentage of the compound remaining in plasma: 101.8%
[2]; 37° C., 60 minutes
  Percentage of the compound remaining in plasma: 99.7%
[2]; 37° C., 120 minutes
  Percentage of the compound remaining in plasma: 92.7%

## CC(C)(C)OP(=O)(OCOc1ccc([N+](=O)[O-])c2cccnc12)OC(C)(C)C [Compound 70, di-tert-butyl (5-nitroquinolin-8-yloxy)methyl phosphate]
Stability in rat plasma; 0 minute
  Percentage of the compound remaining in plasma: 100.0%
Stability in rat plasma; 37° C., 15 minutes
  Percentage of the compound remaining in plasma: 93.4%
Stability in rat plasma; 37° C., 30 minutes
  Percentage of the compound remaining in plasma: 80.7%
Stability in rat plasma; 37° C., 60 minutes
  Percentage of the compound remaining in plasma: 84.1%
Stability in rat plasma; 37° C., 120 minutes
  Percentage of the compound remaining in plasma: 72.9%
[3]
  stability in plasma: high stability
[2]; 0 minute
  Percentage of the compound remaining in plasma: 100.0%
[2]; 37° C., 15 minutes
  Percentage of the compound remaining in plasma: 85.6%
[2]; 37° C., 30 minutes
  Percentage of the compound remaining in plasma: 89.0%
[2]; 37° C., 60 minutes
  Percentage of the compound remaining in plasma: 75.2%
[2]; 37° C., 120 minutes
  Percentage of the compound remaining in plasma: 74.4%
[4]; with coenzyme
  Percentage of the compound remaining in rat liver microsome: 94.34%
[4]; without coenzyme
  Percentage of the compound remaining in rat liver microsome: 96.79%
[5]; aqueous buffer, phosphate buffer pH 4.5, room temperature
  solubility at 24 h: 843 µg/mL
[5]; aqueous buffer, phosphate buffer pH 6.8, room temperature
  solubility at 24 h: 940 µg/mL
[5]; aqueous buffer, phosphate buffer pH 7.4, room temperature
  solubility at 24 h: 998 µg/mL
[5]; conclusion in words
  water solubility compared with nitroxoline: increased by several times
[5]; simulated gastric fluid, phosphate buffer pH 1.2, room temperature
  solubility at 24 h: 639 µg/mL
[6]; with coenzyme
  Percentage of the compound remaining in dog liver microsome: 91.42%
[6]; without coenzyme
  Percentage of the compound remaining in dog liver microsome: 90.90%
[7]; with coenzyme
  Percentage of the compound remaining in human liver microsome: 91.20%
[7]; without coenzyme
  Percentage of the compound remaining in human liver microsome: 91.76%

## CC(C)OC(=O)[C@H](C)NP(=O)(OCOc1ccc([N+](=O)[O-])c2cccnc12)Oc1ccccc1 (some centres unmarked) [Compound 75]
Stability in rat plasma; 0 minute
  Percentage of the compound remaining in plasma: 100.0%
Stability in rat plasma; 37° C., 15 minutes
  Percentage of the compound remaining in plasma: 0.0%
Stability in rat plasma; 37° C., 30 minutes
  Percentage of the compound remaining in plasma: 0.0%
Stability in rat plasma; 37° C., 60 minutes
  Percentage of the compound remaining in plasma: 0.0%
Stability in rat plasma; 37° C., 120 minutes
  Percentage of the compound remaining in plasma: 0.0%
[3]
  stability in plasma: high stability
Stability in dog plasma; 0 minute
  Percentage of the compound remaining in plasma: 100.0%
Stability in dog plasma; 37° C., 15 minutes
  Percentage of the compound remaining in plasma: 98.3%
Stability in dog plasma; 37° C., 30 minutes
  Percentage of the compound remaining in plasma: 95.6%
Stability in dog plasma; 37° C., 60 minutes
  Percentage of the compound remaining in plasma: 80.8%
Stability in dog plasma; 37° C., 120 minutes
  Percentage of the compound remaining in plasma: 67.8%
[2]; 0 minute
  Percentage of the compound remaining in plasma: 100.0%
[2]; 37° C., 15 minutes
  Percentage of the compound remaining in plasma: 98.5%
[2]; 37° C., 30 minutes
  Percentage of the compound remaining in plasma: 94.0%
[2]; 37° C., 60 minutes
  Percentage of the compound remaining in plasma: 87.2%
[2]; 37° C., 120 minutes
  Percentage of the compound remaining in plasma: 65.5%
[4]; with coenzyme
  Percentage of the compound remaining in rat liver microsome: 0.00%
[4]; without coenzyme
  Percentage of the compound remaining in rat liver microsome: 0.02%
[6]; with coenzyme
  Percentage of the compound remaining in dog liver microsome: 12.95%
[6]; without coenzyme
  Percentage of the compound remaining in dog liver microsome: 48.90%
[7]; with coenzyme
  Percentage of the compound remaining in human liver microsome: 1.64%
[7]; without coenzyme
  Percentage of the compound remaining in human liver microsome: 6.45%
